Laboratory results as given in ChEMBL document CHEMBL3259601, “Synthesis of novel 1,2,3-triazole substituted-N-alkyl/aryl nitrone derivatives, their anti-inflammatory and anticancer activity” (Eur J Med Chem, 2014).

Key:
COLO 205 = test: Cytotoxicity against human COLO205 cells assessed as growth inhibition after 24 hrs by MTT assay; assay type: functional, cell-based; details: COLO 205, 24 h
MDA-MB-231 = test: Cytotoxicity against human MDA-MB-231 cells assessed as growth inhibition after 24 hrs by MTT assay; assay type: functional, cell-based; details: MDA-MB-231, 24 h
THP-1 = test: Cytotoxicity against human THP1 cells assessed as effect on cell viability at 20 uM after 48 hrs by trypan blue exclusion assay; assay type: cell-based; details: thp-1, 48 h
[1] = Antiinflammatory activity in human THP1 cells assessed as inhibition of PMA-induced IL-1beta secretion preincubated for 2 hrs followed by PMA challenge measured after 48 hrs by ELISA; assay type: functional, cell-based; details: THP-1
A549 = test: Cytotoxicity against human A549 cells assessed as growth inhibition after 24 hrs by MTT assay; assay type: functional, cell-based; details: A549, 24 h
PC-3 [2] = test: Cytotoxicity against human PC3 cells assessed as growth inhibition after 24 hrs by MTT assay; assay type: functional, cell-based; details: PC-3, 24 h
PC-3 [3] = test: Induction of apoptosis in human PC3 cells assessed as activation of caspase-3 using AFC conjugated Ac-DEVD as substrate measured per mg of protein at 10 uM after 24 hrs by fluorescence assay (reference value: 2115.3 +/- 83.2 FU/min); assay type: functional
PC-3 [4] = test: Induction of apoptosis in human PC3 cells assessed as activation of caspase-3 using AFC conjugated Ac-DEVD as substrate measured per mg of protein at 10 uM after 48 hrs by fluorescence assay (reference value: 2642.4 +/- 37.5 FU/min); assay type: functional
PC-3 [5] = test: Induction of apoptosis in human PC3 cells assessed as activation of caspase-3 using AFC conjugated Ac-DEVD as substrate measured per mg of protein at 8 uM after 36 hrs by fluorescence assay (reference value: 2192.3 +/- 115.9 FU/min); assay type: functional
PC-3 [6] = test: Induction of apoptosis in human PC3 cells assessed as activation of caspase-3 using AFC conjugated Ac-DEVD as substrate measured per mg of protein at 10 uM after 12 hrs by fluorescence assay (reference value: 1055.6 +/- 108.2 FU/min); assay type: functional
PC-3 [7] = test: Induction of apoptosis in human PC3 cells assessed as activation of caspase-3 using AFC conjugated Ac-DEVD as substrate measured per mg of protein at 8 uM after 24 hrs by fluorescence assay (reference value: 2115.3 +/- 83.2 FU/min); assay type: functional
PC-3 [8] = test: Induction of apoptosis in human PC3 cells assessed as activation of caspase-3 using AFC conjugated Ac-DEVD as substrate measured per mg of protein at 8 uM after 48 hrs by fluorescence assay (reference value: 2642.4 +/- 37.5 FU/min); assay type: functional
PC-3 [9] = test: Induction of apoptosis in human PC3 cells assessed as activation of caspase-3 using AFC conjugated Ac-DEVD as substrate measured per mg of protein at 8 uM after 12 hrs by fluorescence assay (reference value: 1055.6 +/- 108.2 FU/min); assay type: functional
PC-3 [10] = test: Induction of apoptosis in human PC3 cells assessed as activation of caspase-3 using AFC conjugated Ac-DEVD as substrate measured per mg of protein at 10 uM after 36 hrs by fluorescence assay (reference value: 2192.3 +/- 115.9 FU/min); assay type: functional
PC-3 [11] = test: Induction of apoptosis in human PC3 cells assessed as activation of caspase-3 using AFC conjugated Ac-DEVD as substrate measured per mg of protein at 1 uM after 48 hrs by fluorescence assay (reference value: 2642.4 +/- 37.5 FU/min); assay type: functional
PC-3 [12] = test: Induction of apoptosis in human PC3 cells assessed as activation of caspase-3 using AFC conjugated Ac-DEVD as substrate measured per mg of protein at 1 uM after 36 hrs by fluorescence assay (reference value: 2192.3 +/- 115.9 FU/min); assay type: functional
PC-3 [13] = test: Induction of apoptosis in human PC3 cells assessed as activation of caspase-3 using AFC conjugated Ac-DEVD as substrate measured per mg of protein at 2 uM after 36 hrs by fluorescence assay (reference value: 2192.3 +/- 115.9 FU/min); assay type: functional
PC-3 [14] = test: Induction of apoptosis in human PC3 cells assessed as activation of caspase-3 using AFC conjugated Ac-DEVD as substrate measured per mg of protein at 1 uM after 12 hrs by fluorescence assay (reference value: 1055.6 +/- 108.2 FU/min); assay type: functional
PC-3 [15] = test: Induction of apoptosis in human PC3 cells assessed as activation of caspase-3 using AFC conjugated Ac-DEVD as substrate measured per mg of protein at 1 uM after 24 hrs by fluorescence assay (reference value: 2115.3 +/- 83.2 FU/min); assay type: functional
PC-3 [16] = test: Induction of apoptosis in human PC3 cells assessed as activation of caspase-3 using AFC conjugated Ac-DEVD as substrate measured per mg of protein at 2 uM after 12 hrs by fluorescence assay (reference value: 1055.6 +/- 108.2 FU/min); assay type: functional
PC-3 [17] = test: Induction of apoptosis in human PC3 cells assessed as activation of caspase-3 using AFC conjugated Ac-DEVD as substrate measured per mg of protein measured per mg of protein at 2 uM after 24 hrs by fluorescence assay (reference value: 2115.3 +/- 83.2 FU/min); assay type: functional
PC-3 [18] = test: Induction of apoptosis in human PC3 cells assessed as activation of caspase-3 using AFC conjugated Ac-DEVD as substrate measured per mg of protein at 2 uM after 48 hrs by fluorescence assay (reference value: 2642.4 +/- 37.5 FU/min); assay type: functional

Structure (SMILES) | IC50 (COLO 205) [µM] | IC50 (MDA-MB-231) [µM] | Activity (THP-1) | IC50 [1] [µM] | IC50 (A549) [µM] | IC50 (PC-3 [2]) [µM] | further results
[O-]/[N+](=C\c1cn(-c2ccccc2)nn1)c1ccccc1 | > 100 | > 100 | Non-toxic | 8.8 | > 100 | > 100 | –
[O-]/[N+](=C\c1cn(-c2ccc(F)cc2)nn1)c1ccccc1 | 10.2 | 9.8 | Non-toxic | > 20 | 12.5 | 11.4 | –
[O-]/[N+](=C\c1cn(-c2ccc(Cl)cc2)nn1)c1ccccc1 | 9.7 | 8.9 | Non-toxic | > 20 | 10.5 | 11.1 | –
CCCCCCCCCCn1cc(/C=[N+](\[O-])c2ccccc2)nn1 | > 100 | > 100 | Non-toxic | 9.9 | > 100 | > 100 | –
[O-]/[N+](=C\c1cn(CCC(F)(F)C(F)(F)C(F)(F)C(F)(F)C(F)(F)C(F)(F)C(F)(F)C(F)(F)F)nn1)c1ccccc1 | > 100 | > 100 | Non-toxic | 11.7 | 86.8 | – | –
[O-]/[N+](=C\c1cn(-c2ccccc2)nn1)Cc1ccccc1 | > 100 | > 100 | Non-toxic | 8 | > 100 | – | –
[O-]/[N+](=C\c1cn(-c2ccc(F)cc2)nn1)Cc1ccccc1 | > 100 | > 100 | Non-toxic | 9.7 | > 100 | > 100 | –
COc1ccc(-n2cc(/C=[N+](\[O-])Cc3ccccc3)nn2)cc1 | > 100 | > 100 | Non-toxic | 17.3 | > 100 | > 100 | –
[O-]/[N+](=C\c1cn(-c2ccc(C(F)(F)F)cc2)nn1)Cc1ccccc1 | > 100 | > 100 | Non-toxic | 15.4 | > 100 | > 100 | –
CCCCCCCCn1cc(/C=[N+](\[O-])Cc2ccccc2)nn1 | > 100 | > 100 | Non-toxic | 13.1 | > 100 | > 100 | –
CCCCCCCCCCn1cc(/C=[N+](\[O-])Cc2ccccc2)nn1 | > 100 | > 100 | Non-toxic | 15.6 | > 100 | > 100 | –
[O-]/[N+](=C\c1cn(CCC(F)(F)C(F)(F)C(F)(F)C(F)(F)C(F)(F)C(F)(F)F)nn1)Cc1ccccc1 | > 100 | > 100 | Non-toxic | 12.1 | > 100 | > 100 | –
[O-]/[N+](=C\c1cn(CCC(F)(F)C(F)(F)C(F)(F)C(F)(F)C(F)(F)C(F)(F)C(F)(F)C(F)(F)F)nn1)Cc1ccccc1 | 9.4 | 8.4 | Non-toxic | 17 | 8.8 | 8.1 | Activity (PC-3 [3]): 3802.2 FU/min; Activity (PC-3 [4]): 4700.5 FU/min; Activity (PC-3 [5]): 3396.8 FU/min; Activity (PC-3 [6]): 2541.4 FU/min; Activity (PC-3 [7]): 3148.5 FU/min; Activity (PC-3 [8]): 4280.8 FU/min; Activity (PC-3 [9]): 2473.2 FU/min; Activity (PC-3 [10]): 4082.5 FU/min
CC(C)(C)/[N+]([O-])=C/c1cn(-c2ccccc2)nn1 | 15.2 | 14.8 | Non-toxic | > 20 | 17.4 | 15.4 | –
CC(C)(C)/[N+]([O-])=C/c1cn(-c2ccc(F)cc2)nn1 | 58.9 | 66.4 | Non-toxic | 14 | 87 | 72.1 | –
COc1ccc(-n2cc(/C=[N+](\[O-])C(C)(C)C)nn2)cc1 | 19.8 | 23.1 | Non-toxic | 13.5 | 23.7 | 23.8 | –
CC(C)(C)/[N+]([O-])=C/c1cn(-c2ccc(C(F)(F)F)cc2)nn1 | 44.7 | 48.2 | Non-toxic | 14.4 | 43.6 | 42 | –
CCCCCCCCn1cc(/C=[N+](\[O-])C(C)(C)C)nn1 | 30.8 | 29.7 | Non-toxic | 7.9 | 31.3 | 24.6 | –
CCCCCCCCCCn1cc(/C=[N+](\[O-])C(C)(C)C)nn1 | 22.1 | 20.8 | Non-toxic | 20 | 24.8 | 19.8 | –
CC(C)(C)/[N+]([O-])=C/c1cn(CCC(F)(F)C(F)(F)C(F)(F)C(F)(F)C(F)(F)C(F)(F)F)nn1 | 9.5 | 9.8 | Non-toxic | 8.1 | 11.5 | 11.2 | –
CC(C)(C)/[N+]([O-])=C/c1cn(CCC(F)(F)C(F)(F)C(F)(F)C(F)(F)C(F)(F)C(F)(F)C(F)(F)C(F)(F)F)nn1 | 28.8 | 29.7 | Non-toxic | 15 | 30.5 | 25.7 | –
COc1cccc2c1C(=O)c1c(O)c3c(c(O)c1C2=O)C[C@@](O)(C(=O)CO)C[C@@H]3O[C@H]1C[C@H](N)[C@H](O)[C@H](C)O1 [DOXORUBICIN] | – | – | – | – | – | 0.6 | Activity (PC-3 [11]): 6690.3 FU/min; Activity (PC-3 [12]): 4794.2 FU/min; Activity (PC-3 [13]): 4994.1 FU/min; Activity (PC-3 [14]): 3033.7 FU/min; Activity (PC-3 [15]): 3791.8 FU/min; Activity (PC-3 [16]): 3331.1 FU/min; Activity (PC-3 [17]): 4007.5 FU/min; Activity (PC-3 [18]): 7240.4 FU/min
CN1C(C(=O)Nc2ccccn2)=C(O)c2ccccc2S1(=O)=O [PIROXICAM] | – | – | – | 18 | – | – | –
